Where a SMILES comes first, the peptide text is derived from it. Bridges are numbered along the chain shown (N, C = ends). [ ]: non-standard residue; d: D form. hCys = N[C@@H](CCS)C(=O)O; Nle = CCCC[C@H](N)C(=O)O

The target of test [1] is T1, Transcriptional coactivator YAP1/Transcriptional enhancer factor TEF-1 (Homo sapiens, UniProt P28347). Kind of test: Inhibition of YAP/ GST-TEAD1 interaction in human Bel-7404 cells […]. Type of test: cell-based, Bel7404.
The target of test [2] is T1, Transcriptional coactivator YAP1/Transcriptional enhancer factor TEF-1. Kind of test: Inhibition of YAP/ GST-TEAD1 (unknown origin) interaction by surface plasmon resonance assay. Type of test: protein assay.
For test [3], the target named is Transcriptional coactivator YAP1/Transcriptional enhancer factor TEF-1 (Homo sapiens) (UniProt P46937+P28347). Kind of test: Inhibition of YAP/ GST-TEAD1 (unknown origin) interaction at 50 uM by surface plasmon resonance assay. It counts as protein assay.
Sequence of Transcriptional coactivator YAP1/Transcriptional enhancer factor TEF-1 (Homo sapiens) (P28347 whole entry, looked up): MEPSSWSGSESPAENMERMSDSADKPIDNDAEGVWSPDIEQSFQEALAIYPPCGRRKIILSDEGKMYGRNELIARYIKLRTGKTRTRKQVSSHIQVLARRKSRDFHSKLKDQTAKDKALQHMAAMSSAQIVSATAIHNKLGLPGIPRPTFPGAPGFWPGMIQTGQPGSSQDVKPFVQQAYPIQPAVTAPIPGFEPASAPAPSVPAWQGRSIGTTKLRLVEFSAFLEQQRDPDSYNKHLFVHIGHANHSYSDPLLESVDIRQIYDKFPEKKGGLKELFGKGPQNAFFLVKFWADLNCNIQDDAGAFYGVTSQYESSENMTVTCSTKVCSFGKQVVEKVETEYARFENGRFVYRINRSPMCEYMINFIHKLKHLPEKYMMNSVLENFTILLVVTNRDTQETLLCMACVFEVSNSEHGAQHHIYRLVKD
Sequence of Transcriptional coactivator YAP1/Transcriptional enhancer factor TEF-1 (Homo sapiens) (P46937 whole entry, looked up): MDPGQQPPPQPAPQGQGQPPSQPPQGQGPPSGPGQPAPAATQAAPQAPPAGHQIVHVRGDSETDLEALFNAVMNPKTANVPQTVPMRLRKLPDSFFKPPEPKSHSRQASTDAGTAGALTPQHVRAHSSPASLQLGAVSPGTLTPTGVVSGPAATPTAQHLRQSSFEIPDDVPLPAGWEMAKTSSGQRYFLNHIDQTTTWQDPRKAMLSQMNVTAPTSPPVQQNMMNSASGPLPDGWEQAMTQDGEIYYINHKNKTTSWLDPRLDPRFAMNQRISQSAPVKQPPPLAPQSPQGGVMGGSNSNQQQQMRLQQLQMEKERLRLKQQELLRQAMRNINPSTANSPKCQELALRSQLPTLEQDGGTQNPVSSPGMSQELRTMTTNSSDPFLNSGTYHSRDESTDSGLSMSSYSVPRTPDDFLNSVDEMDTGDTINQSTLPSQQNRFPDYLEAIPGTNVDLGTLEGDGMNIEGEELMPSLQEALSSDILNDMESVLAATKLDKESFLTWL

T1 sequence (P46937 whole entry): as the sequence (P46937 whole entry, looked up) above
T1 sequence (P28347 whole entry): as the sequence (P28347 whole entry, looked up) above

`CCCC[C@@H]1NC(=O)[C@H](CCCCN)NC(=O)[C@H](CCCNC(=N)N)NC(=O)[C@H](CC(C)C)NC(=O)[C@@H](NC(=O)[C@H](CCSC)NC(=O)[C@@H]2CCCN2C(=O)[C@@H](NC(C)=O)C(C)C)CCSSC[C@@H](C(=O)N[C@@H](CCCCN)C(=O)N2CCC[C@H]2C(=O)N2CCC[C@H]2C(=O)N[C@@H](CCC(=O)O)C(N)=O)NC(=O)[C@H](Cc2ccccc2)NC(=O)[C@H](CO)NC(=O)[C@H](CC(=O)O)NC(=O)[C@@H]2CCCN2C1=O` (Ac-VPM[hCys]LRK[Nle]PDSFCKPPE-NH2; disulfide 4-13): the Kd in test [1] amounted to 211 nM. Besides, the IC50 in test [2] was found to be 1700 nM.

As to `CCCC[C@@H]1NC(=O)[C@H](CCCCN)NC(=O)[C@H](CCCNC(=N)N)NC(=O)[C@H](CC(C)C)NC(=O)[C@@H](NC(=O)[C@H](Cc2cccc(Cl)c2)NC(=O)[C@@H]2CCCN2C(=O)[C@@H](NC(C)=O)C(C)C)CCSSC[C@@H](C(=O)N[C@@H](CCCCN)C(=O)N2CCC[C@H]2C(=O)N2CCC[C@H]2C(=O)N[C@@H](CCC(=O)O)C(N)=O)NC(=O)[C@H](Cc2ccccc2)NC(=O)[C@H](CO)NC(=O)[C@H](C)NC(=O)[C@@H]2CCCN2C1=O`, in test [1], the Kd came out at 15 nM. Also, the IC50 in test [2] was found to be 25 nM.

Turning to `CCCC[C@@H]1NC(=O)[C@H](CCCCN)NC(=O)[C@H](CCCNC(=N)N)NC(=O)[C@H](CC(C)C)NC(=O)[C@@H](NC(=O)[C@H](CCSC)NC(=O)[C@@H]2CCCN2C(=O)[C@@H](NC(C)=O)C(C)C)CCSSC[C@@H](C(=O)N[C@@H](CCCCN)C(=O)N2CCC[C@H]2C(=O)N2CCC[C@H]2C(=O)N[C@@H](CCC(=O)O)C(N)=O)NC(=O)[C@H](Cc2ccccc2)NC(=O)[C@H](CO)NC(=O)[C@H](C)NC(=O)[C@@H]2CCCN2C1=O`, the Kd in test [1] was 39 nM. Moreover, the IC50 in test [2] was 150 nM.

Turning to `CSCC[C@H](NC(=O)[C@@H]1CCCN1C(=O)[C@@H](NC(=O)[C@@H](NC(=O)[C@H](CCC(N)=O)NC(=O)[C@@H]1CCCN1C(C)=O)[C@@H](C)O)C(C)C)C(=O)N[C@@H](CCCNC(=N)N)C(=O)N[C@@H](CC(C)C)C(=O)N[C@@H](CCCNC(=N)N)C(=O)N[C@@H](CCCCN)C(=O)N[C@@H](CC(C)C)C(=O)N1CCC[C@H]1C(=O)N[C@@H](CC(=O)O)C(=O)N[C@@H](CO)C(=O)N[C@@H](Cc1ccccc1)C(=O)N[C@@H](Cc1ccccc1)C(=O)N[C@@H](CCCCN)C(=O)N1CCC[C@H]1C(=O)N1CCC[C@H]1C(=O)N[C@@H](C)C(N)=O` (Ac-PQTVPMRLRKLPDSFFKPPA-NH2), the inhibition in test [3] turned out to be 71%. Further, the IC50 in test [2] was determined as 43000 nM.

Turning to `CCCCC[C@@H]1NC(=O)[C@H](CCCCN)NC(=O)[C@H](CCCNC(=N)N)NC(=O)[C@H](CC(C)C)NC(=O)[C@@H](NC(=O)[C@H](CCSC)NC(=O)[C@@H]2CCCN2C(=O)[C@@H](NC(C)=O)C(C)C)CCSSC[C@@H](C(=O)N[C@@H](CCCCN)C(=O)N2CCC[C@H]2C(=O)N2CCC[C@H]2C(=O)N[C@@H](CCC(=O)O)C(N)=O)NC(=O)[C@H](Cc2ccccc2)NC(=O)[C@H](CO)NC(=O)[C@H](C)NC(=O)[C@@H]2CCCN2C1=O`, the Kd in test [1] worked out at 18 nM. The IC50 in test [2] stood at 42 nM.

Values taken from ChEMBL document CHEMBL3351292, “Structure-Based Design and Synthesis of Potent Cyclic Peptides Inhibiting the YAP-TEAD Protein-Protein Interaction” (ACS Med Chem Lett, 2014).
